# Data as given in patent US12241112B2, “D-glucaric acid producing bacterium, and method for manufacturing D-glucaric acid” (Ensuiko Sugar Refining Co., Ltd., priority 2012, dated 2025).
# Where a name gives a salt, the structure may show the parent alone.
# Tests used:
# β-glucuronidase = biological target: T1, β-glucuronidase (Homo sapiens, UniProt P08236); settings: background statement; cited from earlier work
# T1 sequence (P08236 23-651): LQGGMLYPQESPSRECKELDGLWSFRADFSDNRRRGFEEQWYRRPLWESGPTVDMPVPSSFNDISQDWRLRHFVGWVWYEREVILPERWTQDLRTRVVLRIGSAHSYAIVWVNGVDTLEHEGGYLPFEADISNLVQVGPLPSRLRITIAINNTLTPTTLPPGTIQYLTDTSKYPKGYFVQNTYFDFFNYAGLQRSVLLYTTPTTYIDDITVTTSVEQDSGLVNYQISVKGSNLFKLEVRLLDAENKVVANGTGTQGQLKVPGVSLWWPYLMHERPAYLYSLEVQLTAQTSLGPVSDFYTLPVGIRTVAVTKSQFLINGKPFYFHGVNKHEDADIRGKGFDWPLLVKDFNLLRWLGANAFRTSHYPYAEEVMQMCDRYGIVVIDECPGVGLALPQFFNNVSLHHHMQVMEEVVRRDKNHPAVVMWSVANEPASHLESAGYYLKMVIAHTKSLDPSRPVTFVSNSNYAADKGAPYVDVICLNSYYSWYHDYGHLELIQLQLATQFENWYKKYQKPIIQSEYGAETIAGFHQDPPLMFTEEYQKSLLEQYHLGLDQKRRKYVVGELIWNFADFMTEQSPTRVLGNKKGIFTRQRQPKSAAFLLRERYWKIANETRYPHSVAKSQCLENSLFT
# PQQ-ALDH (2) = assay: Substrate specificity of PQQ-ALDH (2); type: biochemical, Pseudogluconobacter saccharoketogenes; settings: McIlvaine buffer pH 8.0, relative to sodium salt of intermediate B set to be 100
# Protocol: (§1) • Substrate solution: 0.2 M sodium glyoxylate solution (adjusted to pH 8.0 with sodium hydroxide) • Buffer: McIlvaine buffer (pH 8.0)
# (§2) Other reagents and preparation methods thereof and measurement procedures are in accordance with the measurement of ADH (1) activity.
# (§3) Each substrate (D-glucose, sodium D-gluconate, sodium D-glucuronate, intermediate A, sodium salt of intermediate B, sodium glyoxylate) was dissolved in McIlvaine buffer (pH 8.0) and the activity of ALDH was measured as described in Example 1 to study the substrate specificity of PQQ-ALDH (2). The enzyme activity for each substrate is expressed as a relative activity to the activity measured with the sodium salt of intermediate B as a substrate that was set to be 100.
# PQQ-ADH (1) = assay: Substrate specificity of PQQ-ADH (1); type: biochemical, Pseudogluconobacter saccharoketogenes; settings: McIlvaine buffer pH 5.0, relative to D-glucose set to be 100
# Protocol: (§4) The culture solution (1 mL) was centrifuged at 10,000 rpm for 5 minutes to recover the cells. The cells were resuspended in 1 mL of 0.9% saline. The cell suspension was appropriately diluted in 0.9% saline to obtain a crude enzyme solution. In a test tube 250 μL of the buffer, 500 μL of the substrate solution and 50 μL of the crude enzyme solution were placed and preliminarily heated to 30° C. for 5 minutes.
# (§5) To the mixture 200 μL of the potassium ferricyanide solution was added to initiate oxidation reaction. After 10 minutes, 500 μL of the reaction termination solution was added to terminate the reaction. The reaction solution was added with 3.5 mL of pure water, left to stand in the dark at room temperature for 20 minutes and measured for the absorbance at 660 nm. For the control, pure water was used instead of the substrate solution. In this measurement, 1 U is defined as the amount of enzyme required to oxidize 1 μM of the substrate per minute.
# as §3, with “B)” for “B, sodium glyoxylate)”, “5.0)” for “8.0)”, “ADH” for “ALDH”, “PQQ-ADH (1).” for “PQQ-ALDH (2).”, “D-glucose” for “the sodium salt of intermediate B”
# PQQ/Heme-ALDH (4) = assay: Substrate specificity of PQQ/Heme-ALDH (4); type: biochemical, Pseudogluconobacter saccharoketogenes; settings: McIlvaine buffer pH 8.0, relative to sodium D-gluconate set to be 100
# Protocol: as §1, §2
# Each substrate (D-glucose, sodium D-gluconate, sodium D-glucuronate, intermediate A, sodium salt of intermediate B, sodium glyoxylate) was dissolved in McIlvaine buffer (pH 8.0) and the activity of ALDH was measured as described in Example 1 to study the substrate specificity of PQQ/Heme-ALDH (4). The enzyme activity for each substrate is expressed as a relative activity to the activity measured with sodium D-gluconate as a substrate that was set to be 100.
# ALDH (2 and 3) = assay: Measurement of activity of ALDH (2 and 3) (potassium ferricyanide method, sodium glyoxylate substrate, pH 8.0); type: biochemical, Pseudogluconobacter saccharoketogenes
# Protocol: as §4, §5
# 2) Measurement of Activity of ALDH (2 and 3)
# as §1, §2
# ADH (1) = assay: Measurement of activity of ADH (1) (potassium ferricyanide method, glucose substrate, pH 5.0); type: biochemical, Pseudogluconobacter saccharoketogenes; settings: ADH (1) activity
# Protocol: 1) Measurement of Activity of ADH (1)
# • Substrate solution: 0.2 M glucose solution • Buffer: McIlvaine buffer (pH 5.0) • Potassium ferricyanide solution: 0.1 M potassium ferricyanide solution • Reaction termination solution: 5 g of ferric sulphate and 95 mL of phosphoric acid were dissolved in pure water and adjusted to 1 L. <Measurement Procedures>
# as §4, §5
Molecule,Relative activity (PQQ-ALDH (2); 0.2M substrate),Relative activity (PQQ-ADH (1); 0.2M substrate),Relative activity (PQQ/Heme-ALDH (4); 0.2M substrate),also measured
O=C(O)[C@@H](O)[C@@H](O)[C@H](O)[C@@H](O)C(=O)O [D-glucaric acid],–,–,–,inhibition of β-glucuronidase (β-glucuronidase): strongly inhibit
O=C[C@H](O)[C@@H](O)[C@H](O)[C@H](O)CO [D-glucose],11.8%,100%,35.1%,–
"O=C[C@@H](O)[C@@H](O)[C@H](O)[C@@H](O)C=O [intermediate A, D-glucaraldehyde]",–,–,–,Relative activity (PQQ-ALDH (2); 0.02M substrate): 476%; Relative activity (PQQ-ADH (1); 0.02M substrate): 59.1%; Relative activity (PQQ/Heme-ALDH (4); 0.02M substrate): 11.6%
O=C([O-])[C@H](O)[C@@H](O)[C@H](O)[C@H](O)CO.[Na+] [sodium D-gluconate],<1%,88.6%,100%,–
O=C[C@H](O)[C@@H](O)[C@H](O)[C@H](O)C(=O)[O-].[Na+] [sodium D-glucuronate],18.6%,<1%,2.9%,–
"O=CC(=O)[O-].[Na+] [sodium glyoxylate, reference compound]","3,050%",–,"20,260%",–
"O=C[C@@H](O)[C@@H](O)[C@H](O)[C@@H](O)C(=O)O [sodium salt of intermediate B, L-guluronic acid]",100%,2.7%,21.1%,–
"PQQ-ALDH (2): specific pyrroloquinoline quinone-dependent aldehyde dehydrogenase, amino acid sequence of SEQ ID NO: 2 (protein, Pseudogluconobacter) MYRKGSVLTVSALVLGLCTSSVWAQQAPTTNALDNLTPVTSVWAQQAPTTNALDNLTPVTGWGYSPLDQINKDNVDKLQLVWSWGLSPGGTTQETPLVHDGVMFVQNSSHLIQALDAGTGELLWQYQYSLPTGVNPAGQRSKALYGDNLIFATRDAHIVAVNAKTGKLAWDQQVADYKKGWGYSSGPLVADGTIIQGMTNCGNGEPGGCFITGHDPATGKELWRLNTIASGDTPEGNSWNGLPQMSRYGASAWITGSYDPDQNIVFAGVGQPYPWPAVLNGLLPKSTDSKYTNNAAYTDSTLAIEPKTGALKWYHQYLATDTLDLDYVYERLLVDLPVKGEATKQVITAGKLAIIESLDRTSGKWLWAHETVPQNVVSAIDPVTGEKTINPDVIPQVGKTTVNCPADPGGRAWQATSFSPKTQMMYMPTVEFCSNTDVNPLDPGQVYTGGGLATFNRVPRPDSDGNIGQVRAINLADQTDAWMYRQHAPVTTSTLPTGGGLVFVGTLDRKLIAFDDTTGKILWTSPKLDNAIESFPVTFTAGDKQYVAVVTNWSSGLGRLKSITPDVQLPQDNPHTVYVFALPDTK",–,–,–,"Specific activity (ALDH (2 and 3); enzyme purified from Rh47-3 strain, ALDH (2) activity): 8,928 U/mg"
"PQQ-ADH (1): specific pyrroloquinoline quinone-dependent alcohol dehydrogenase, amino acid sequence of SEQ ID NO: 1 (protein, Pseudogluconobacter) MLKQSLLASGLAALCVAAMGSLSLAAETTSERLLNAGSEAENGNWLMVHRTYDSHRFSPLSEINKDTIKDLGLASVTILDNASRGGRYASARNEGTPLVEDGFMYLQSGWSVVYKLDVRDGKTAKVVWKYDPEVDRQWVSDATCCGAENRGIGLWNDDVVALTMDGRVMSINKDTGELNWEKQRADKARAESFTGAPLIIGDTAVYGPAGGEYGIRGWLEAIDLKTGDVAWRTYTVPGPGEPGNDTWQGNAWETGGASIWQTGSYDPDTGMTYWGTGNPAPQIDAEYRPGDNLYASSLLALDAKDGALKWHFQFTPNDPYDYDEIGDNQLLDVSVDGKPSKMVVRAARNGFMYGFNRLDGAMTYAKQYVEDLTWTTGIDPKTGKPLEYDPKAQLQKYVAGTVGSREGNPGIYCPTLGGGKNWQPAAYSPNTKLLYVTSAEGCSAYVPEAAPNPTTTGGEYDVVKAQREWNGRLPAPEGTKLPDVFNGGSVKAIDPLTGETKAKVLVPRRLNGMLATGGDLVWSSGTDGNLYAYDANTLETVWTFNVGTALGGPPMSYSVDGKQYVAVLAGAAASAADKKVAPQSEFFVPADALYIFALK",–,–,–,Specific activity (ADH (1); enzyme purified from K591s strain): 36.0 U/mg; Specific activity (ADH (1); enzyme purified from Rh47-3 strain): 38.6 U/mg
"PQQ/Heme-ALDH (4): ALDH (3) enzyme with the highest activity, contains PQQ and Heme c, SEQ ID NO: 3 (protein, PQQ and heme c cofactors; Pseudogluconobacter) MTIRLKTLLAFTAITTLALPAFAQDAAAPAAPAARTYKPVTNDMILNPPAEEWISWRRTVDNQGYSPLDLINKDIVKNLELAWAWPMAADGQQEAAPLVHDGIMFLSTNQNIIQALDAKTGDLIWEYRHVLPELPTSWGYQLNQARRQKNSIALYDDKVIVATADAKLVALDAATGKVAWETQVYDTQKGYSYTVGPLIVGDTAVYGPAGGEYGIRGWLEFIAAHDAKTGKEIWRFNTIDDPKNPEQEASWNGVPPENRWGGTPWTTGSYDPRTNTTFWGVGMPGPYSQLIRGSGEGPVLYTNNTLALDADTGERKWNFSHLPADNWDLDSPFERILVDEGQGDAAKHLLVTVPGKDGIAFGLDRDTGKYLWSRDTVYQNVVKNIDAEGKVTLNSDLVPTAVNQEVFVCTSVSGGKLWMTGAYSPKTQTYYVPLAEACNTVTPTVTEFTAGNAVGATKFGPRVLPPNITNGGVVEAINVADGARKWRLEQRPTFSSSLLAKAKVLVPRRLNGMLATGGDLETGQVVWKTRLNAPIGGYPMTYEIDGEQYLAVPTGFSAQASSSASMFPEIPVPSGSGNSLFVFKLRNDTQTASK",–,–,–,"Specific activity (ALDH (2 and 3); enzyme purified from K591s strain, ALDH (3) activity): 27,661 U/mg"
